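Dose response: 5 concentrations. Exposure: 48 h. Format: 96-well plates. Endpoint: linear interpolation; highest concentration if not reached. GI50 is the concentration that inhibits growth by half.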 Activity calls are given as the source filed them. Rule as the data show it: active = GI50 up to about 1.1 µM and inactive = higher.
How the values were obtained:
Experiment in all cases: NCI anticancer screen, dose series, 48 h
LOX IMVI = system: LOX IMVI
RXF 393 = system: RXF 393
SK-MEL-2 = system: SK-MEL-2
UACC-62 = system: UACC-62
TK-10 = system: TK-10
SNB-19 = system: SNB-19
MOLT-4 = system: MOLT-4
Hs-578T = system: Hs-578T
SK-MEL-5 = system: SK-MEL-5
MCF7 = system: MCF7
Malme-3M = system: Malme-3M
OVCAR-8 = system: OVCAR-8
RPMI-8226 = system: RPMI-8226
EKVX = system: EKVX
BT-549 = system: BT-549
SF-268 = system: SF-268
A549 = system: A549
M14 = system: M14
SK-OV-3 = system: SK-OV-3
SF-295 = system: SF-295

Measured: GI50

O=C1CSC2(CC(/C=C/c3ccccc3[N+](=O)[O-])=NN2c2cccc(S(=O)(=O)O)c2)N1c1nc2ccccc2s1 (stereo not drawn)
inactive: LOX IMVI 16.4 µM | RXF 393 23.8 µM | SK-MEL-2 15.2 µM | UACC-62 13.6 µM | TK-10 15.1 µM | SNB-19 15.5 µM | MOLT-4 15.7 µM | Hs-578T 22.3 µM | SK-MEL-5 25.4 µM | MCF7 12.5 µM | Malme-3M 24.4 µM | OVCAR-8 15.3 µM | RPMI-8226 16.8 µM | EKVX 32.3 µM | BT-549 17.3 µM | SF-268 16.8 µM | A549 18.7 µM | M14 20.7 µM

COc1cnc2oc3ccc(O)cc3c2c1-c1ccccc1
inactive: LOX IMVI > 100 µM | RXF 393 > 100 µM | SK-MEL-2 > 100 µM | TK-10 > 100 µM | SK-OV-3 > 100 µM | MOLT-4 > 100 µM | Hs-578T > 100 µM | SK-MEL-5 61.9 µM | MCF7 39.7 µM | Malme-3M 40 µM | OVCAR-8 55.3 µM | RPMI-8226 > 100 µM | SF-295 83 µM | EKVX > 100 µM | BT-549 > 100 µM | SF-268 4 µM | A549 > 100 µM | M14 18.7 µM

Cc1ccc(S(=O)(=O)N2CCN(S(=O)(=O)c3ccc(C)cc3)CCN(S(=O)(=O)c3ccc(C)cc3)Cc3cc(Br)c(Br)cc3CN(S(=O)(=O)c3ccc(C)cc3)CC2)cc1
inactive: LOX IMVI 79.4 µM | RXF 393 > 100 µM | UACC-62 > 100 µM | TK-10 69.5 µM | SNB-19 43.5 µM | SK-OV-3 > 100 µM | MOLT-4 > 100 µM | Hs-578T > 100 µM | SK-MEL-5 > 100 µM | MCF7 > 100 µM | Malme-3M 44.9 µM | OVCAR-8 > 100 µM | RPMI-8226 > 100 µM | SF-295 > 100 µM | EKVX 68.2 µM | BT-549 > 100 µM | SF-268 > 100 µM | A549 > 100 µM | M14 19.1 µM

C1COCCOP2(N3CC3)=NP(N3CC3)(=NP(N3CC3)(N3CC3)=N2)OCCOCCO1 (stereo not drawn)
inactive: LOX IMVI 25.4 µM | RXF 393 > 100 µM | UACC-62 > 100 µM | TK-10 > 100 µM | SNB-19 > 100 µM | SK-OV-3 > 100 µM | MOLT-4 > 100 µM | Hs-578T > 100 µM | SK-MEL-5 > 100 µM | MCF7 > 100 µM | Malme-3M > 100 µM | OVCAR-8 > 100 µM | RPMI-8226 > 100 µM | SF-295 > 100 µM | EKVX > 100 µM | BT-549 > 100 µM | SF-268 > 100 µM | A549 > 100 µM | M14 > 100 µM

COc1ccc([C@H]2[C@H](C)C3=Nc4ccccc4CN32)cc1
inactive: LOX IMVI 39.8 µM | RXF 393 > 100 µM | SK-MEL-2 > 100 µM | UACC-62 57.5 µM | TK-10 > 100 µM | SNB-19 > 100 µM | MOLT-4 36.8 µM | Hs-578T > 100 µM | SK-MEL-5 40.8 µM | MCF7 59.7 µM | Malme-3M > 100 µM | OVCAR-8 71.8 µM | RPMI-8226 33.7 µM | SF-295 49.4 µM | EKVX 96.8 µM | BT-549 > 100 µM | SF-268 98.9 µM | A549 55.1 µM | M14 42.6 µM

CCN(CC)C(=O)Cn1c2c(c3ccccc31)CCCC2
inactive: LOX IMVI > 100 µM | SK-MEL-2 > 100 µM | UACC-62 99.8 µM | TK-10 > 100 µM | SNB-19 > 100 µM | SK-OV-3 > 100 µM | Hs-578T 24.5 µM | SK-MEL-5 64 µM | MCF7 > 100 µM | Malme-3M > 100 µM | OVCAR-8 > 100 µM | RPMI-8226 56.8 µM | SF-295 49.8 µM | EKVX > 100 µM | BT-549 > 100 µM | SF-268 > 100 µM | A549 61.8 µM | M14 > 100 µM

Cc1nc2ccc(S(=O)(=O)Nc3ccc(Cl)cc3)cc2c(=O)n1NC(=O)CNc1ccc(Cl)cc1
inactive: LOX IMVI > 100 µM | SK-MEL-2 > 100 µM | UACC-62 > 100 µM | TK-10 > 100 µM | SNB-19 > 100 µM | SK-OV-3 > 100 µM | MOLT-4 > 100 µM | Hs-578T > 100 µM | MCF7 > 100 µM | Malme-3M > 100 µM | OVCAR-8 > 100 µM | RPMI-8226 > 100 µM | SF-295 > 100 µM | EKVX > 100 µM | BT-549 > 100 µM | SF-268 > 100 µM | A549 > 100 µM | M14 > 100 µM

O=C(c1cc(Cl)ccc1Cl)N1CCN(C(=O)c2cc(Cl)ccc2Cl)CC1
inactive: LOX IMVI > 100 µM | RXF 393 67.1 µM | TK-10 > 100 µM | SNB-19 > 100 µM | MOLT-4 > 100 µM | Hs-578T > 100 µM | SK-MEL-5 55.6 µM | MCF7 > 100 µM | Malme-3M > 100 µM | OVCAR-8 30.2 µM | RPMI-8226 > 100 µM | SF-295 91 µM | EKVX > 100 µM | BT-549 > 100 µM | SF-268 > 100 µM | A549 > 100 µM | M14 > 100 µM

O=c1oc(-c2ccccc2)c(-c2ccccc2)n1-c1ccc(Br)cc1
inactive: LOX IMVI 32.4 µM | RXF 393 36.3 µM | SK-MEL-2 > 100 µM | UACC-62 73.8 µM | TK-10 31.8 µM | SNB-19 31.8 µM | SK-OV-3 31.1 µM | MOLT-4 > 100 µM | Hs-578T 32.3 µM | SK-MEL-5 76.6 µM | MCF7 > 100 µM | OVCAR-8 29.2 µM | SF-295 28.1 µM | EKVX 54.1 µM | BT-549 25.5 µM | SF-268 55 µM | A549 54.5 µM | M14 > 100 µM

CCOC(=O)c1c(SCC#N)n(-c2ccccc2)c(=S)n(-c2ccccc2)c1=O
inactive: LOX IMVI 14.7 µM | SK-MEL-2 39.5 µM | UACC-62 23.3 µM | TK-10 > 100 µM | SNB-19 37.8 µM | SK-OV-3 35.9 µM | MOLT-4 9.73 µM | Hs-578T 28.1 µM | SK-MEL-5 27 µM | MCF7 37.8 µM | Malme-3M 39.2 µM | OVCAR-8 38.5 µM | RPMI-8226 35.5 µM | SF-295 32.1 µM | EKVX 36.3 µM | BT-549 36.1 µM | SF-268 55.8 µM | A549 39.4 µM | M14 > 100 µM

COc1cc(Cc2cnc(N)nc2N)cc(OC)c1OCCCNc1ccc([N+](=O)[O-])cc1
inactive: RXF 393 10.4 µM | SK-MEL-2 15.5 µM | UACC-62 12.9 µM | TK-10 14.3 µM | SNB-19 12.8 µM | SK-OV-3 31.5 µM | MOLT-4 2.72 µM | Hs-578T 18.5 µM | SK-MEL-5 5.79 µM | MCF7 12.1 µM | Malme-3M 12.7 µM | OVCAR-8 14.3 µM | EKVX 15.3 µM | BT-549 10.5 µM | SF-268 22.9 µM | A549 13 µM | M14 6.35 µM

NCCCN(CCCCN(CCCN)CCCc1ccccc1)CCCc1ccccc1
inactive: LOX IMVI 2.36 µM | RXF 393 2.37 µM | SK-MEL-2 1.69 µM | UACC-62 1.74 µM | TK-10 12.4 µM | SNB-19 1.19 µM | SK-OV-3 4.16 µM | MOLT-4 2 µM | Hs-578T 1.81 µM | SK-MEL-5 1.83 µM | MCF7 1.96 µM | OVCAR-8 8.71 µM | RPMI-8226 2.43 µM | SF-295 1.69 µM | EKVX 2.99 µM | BT-549 3.03 µM | SF-268 3.07 µM | A549 3.23 µM | M14 1.76 µM

CC(=O)/N=C1\NC(=O)/C(=C/c2ccccc2Cl)N1C
inactive: LOX IMVI > 100 µM | RXF 393 > 100 µM | SK-MEL-2 > 100 µM | UACC-62 > 100 µM | TK-10 > 100 µM | SNB-19 > 100 µM | SK-OV-3 > 100 µM | MOLT-4 > 100 µM | Hs-578T > 100 µM | SK-MEL-5 > 100 µM | MCF7 > 100 µM | OVCAR-8 > 100 µM | SF-295 > 100 µM | EKVX 26.4 µM | BT-549 > 100 µM | SF-268 > 100 µM | A549 > 100 µM | M14 > 100 µM

NC(Cc1ccc(S(=O)(=O)O)cc1)C(=O)NC(Cc1ccc(S(=O)(=O)O)cc1)C(=O)O (stereo not drawn)
inactive: LOX IMVI > 100 µM | RXF 393 > 100 µM | SK-MEL-2 > 100 µM | UACC-62 > 100 µM | TK-10 > 100 µM | MOLT-4 > 100 µM | Hs-578T > 100 µM | SK-MEL-5 > 100 µM | MCF7 > 100 µM | Malme-3M > 100 µM | OVCAR-8 > 100 µM | RPMI-8226 > 100 µM | SF-295 > 100 µM | EKVX > 100 µM | BT-549 > 100 µM | SF-268 > 100 µM | A549 > 100 µM | M14 > 100 µM

C1=C[C@@H]2c3ccc4cnccc4c3NC[C@@H]2C1
inactive: RXF 393 > 100 µM | UACC-62 58.2 µM | TK-10 > 100 µM | SNB-19 > 100 µM | SK-OV-3 > 100 µM | MOLT-4 > 100 µM | Hs-578T 46.8 µM | SK-MEL-5 > 100 µM | MCF7 > 100 µM | Malme-3M > 100 µM | OVCAR-8 > 100 µM | RPMI-8226 > 100 µM | SF-295 > 100 µM | EKVX 16.8 µM | BT-549 > 100 µM | SF-268 > 100 µM | A549 > 100 µM | M14 > 100 µM

Source: ChEMBL document CHEMBL1201862, “PubChem BioAssay data set” (2004)
